Experimental data from patent US9260408B2, “Dihydroquinoline-2-one derivatives” (Hoffmann-La Roche Inc., priority 2011, dated 2016).
Structures can show the parent of a compound that is named as a salt.

Legend:
[1] = molecular target: T1, human CYP11B2 (Homo sapiens, UniProt P19099); test: G-402 cellular enzyme assay, human CYP11B2 (aldosterone release, HTRF); format: cell-based; details: G-402 cells expressing human CYP11B2; 1 μM Deoxycorticosterone
T1 construct: expressed in transfected cells
T1 sequence (P19099 25-503): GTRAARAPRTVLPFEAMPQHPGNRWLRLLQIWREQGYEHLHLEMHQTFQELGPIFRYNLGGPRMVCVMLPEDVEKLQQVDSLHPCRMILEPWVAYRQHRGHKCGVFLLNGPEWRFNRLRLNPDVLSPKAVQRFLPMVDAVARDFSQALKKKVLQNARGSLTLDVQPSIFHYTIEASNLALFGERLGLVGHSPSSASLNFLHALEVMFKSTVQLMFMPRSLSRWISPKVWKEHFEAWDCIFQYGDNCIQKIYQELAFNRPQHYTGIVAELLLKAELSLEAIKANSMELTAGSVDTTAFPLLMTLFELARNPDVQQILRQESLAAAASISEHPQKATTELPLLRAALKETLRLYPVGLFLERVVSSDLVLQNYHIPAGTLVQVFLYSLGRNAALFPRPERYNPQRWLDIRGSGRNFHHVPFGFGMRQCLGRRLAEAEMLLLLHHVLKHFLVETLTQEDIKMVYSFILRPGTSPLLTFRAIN
Source text: (§1) Herein we identified the use of the G-402 cell line as a host cell to ectopically express (transiently or stably) enzymes of the CYP11 family. Specifically we developed stable G-402 cells expressing ectopically human CYP11B1, human CYP11B2, human CYP11A1, cynomolgus CYP11B1 or cynomolgus CYP11B2 enzyme activity. Importantly the identified cell line G-402 expresses co-factors (adrenodoxin and adrenodoxin reductase) important for the activity of the CYP11 family and no relevant enzyme activity of the CYP11 family (in comparison to H295R cells) was detected in these cells. Therefore the G-402 cell line is uniquely suited as a host cell for the ectopic expression of enzymes from the CYP11 family.
(§2) G-402 cells can be obtained from ATCC(CRL-1440) and were originally derived from a renal leiomyoblastoma.
(§3) The expression plasmids contains the ORF for either human/cyno CYP11B1 or CYP11B2 under the control of a suitable promoter (CMV-promoter) and a suitable resistance marker (neomycin). Using standard techniques the expression plasmid is transfected into G-402 cells and these cells are then selected for expressing the given resistance markers. Individual cell-clones are then selected and assessed for displaying the desired enzymatic activity using 11-Deoxycorticosterone (Cyp11B2) or 11-Deoxycortisol (Cyp11B1) as a substrate.
(§4) G-402 cells expressing CYP11 constructs were established as described above and maintained in McCoy's 5a Medium Modified, ATCC Catalog No. 30-2007 containing 10% FCS and 400 μg/ml G418 (Geneticin) at 37° C. under an atmosphere of 5% CO2/95% air. Cellular enzyme assays were performed in DMEM/F12 medium containing 2.5% charcoal treated FCS and appropriate concentration of substrate (0.3-10 uM 11-Deoxycorticosterone, 11-Deoxycortisol or Corticosterone). For assaying enzymatic activity, cells were plated onto 96 well plates and incubated for 16 h. An aliquot of the supernatant is then transferred and analyzed for the concentration of the expected product (Aldosterone for CYP11B2; Cortisol for CYP11B1). The concentrations of these steroids can be determined using HTRF assays from CisBio analyzing either Aldosterone or Cortisol.
(§5) Inhibition of the release of produced steroids can be used as a measure of the respective enzyme inhibition by test compounds added during the cellular enzyme assay. The dose dependent inhibition of enzymatic activity by a compound is calculated by means of plotting added inhibitor concentrations (x-axes) vs. measured steroid/product level (y-axes). The inhibition is then calculated by fitting the following 4-parameter sigmoidal function (Morgan-Mercer-Flodin (MMF) model) to the raw data points using the least squares method:
(§6) [formula] wherein, A is the maximum y value, B is the EC50 factor determined using XLFit, C is the minimum y value and D is the slope value.
(§7) EC50 values for compounds claimed herein were tested with the G402-based assay system described. Cyp11B2 enzyme activity was tested in presence of 1 μM Deoxycorticosterone and variable amounts of inhibitors; Cyp11B1 enzyme activity was tested in presence of 1 μM Deoxycortisol and variable amounts of inhibitors.

[2] = molecular target: T2, human CYP11B1 (Homo sapiens, UniProt P15538); test: G-402 cellular enzyme assay, human CYP11B1 (cortisol release, HTRF); format: cell-based; details: G-402 cells expressing human CYP11B1; 1 μM Deoxycortisol
T2 construct: expressed in transfected cells
T2 sequence (P15538 25-503): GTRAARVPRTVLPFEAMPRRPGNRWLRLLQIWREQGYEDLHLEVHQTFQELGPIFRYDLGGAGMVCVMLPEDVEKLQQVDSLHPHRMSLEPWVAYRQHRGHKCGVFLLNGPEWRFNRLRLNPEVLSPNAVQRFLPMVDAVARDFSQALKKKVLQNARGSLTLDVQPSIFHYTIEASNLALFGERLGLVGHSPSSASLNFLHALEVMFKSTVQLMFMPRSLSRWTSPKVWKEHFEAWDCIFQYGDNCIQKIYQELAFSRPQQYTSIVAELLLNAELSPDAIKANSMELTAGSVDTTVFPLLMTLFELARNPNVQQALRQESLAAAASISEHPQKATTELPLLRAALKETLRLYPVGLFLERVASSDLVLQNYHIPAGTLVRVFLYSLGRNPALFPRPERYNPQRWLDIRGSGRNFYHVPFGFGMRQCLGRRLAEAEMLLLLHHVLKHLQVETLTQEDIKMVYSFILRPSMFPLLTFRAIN
Source text: as §1, §2, §3, §4, §5, §6, §7

| Compound | EC50 [1] | EC50 [2] |
| --- | --- | --- |
| COc1cc(C(=O)N2CC3(C2)CN(c2cncc(-c4ccc5c(c4)CCC(=O)N5C)n2)C3)on1 [Example 74, 6-{6-[6-(3-Methoxy-isoxazole-5-carbonyl)-2,6-diaza-spiro[3.3]hept-2-yl]-pyrazin-2-yl}-1-methyl-3,4-dihydro-1H-quinolin-2-one] | 286 nM | – |
| CN1C(=O)CCc2cc(-c3cncc(C4(N[S@+]([O-])C(C)(C)C)COC4)c3)ccc21 [Example 54, (R)-2-Methyl-propane-2-sulfinic acid {3-[5-(1-methyl-2-oxo-1,2,3,4-tetrahydro-quinolin-6-yl)-pyridin-3-yl]-oxetan-3-yl}-amide] | – | 3850 nM |
| Cc1cc(Cl)cnc1C(=O)NCc1cncc(-c2ccc3c(c2)CCC(=O)N3C)c1 [Example 120] | – | 8 nM |
| CN1C(=O)CCc2cc(-c3cncc(OC[C@@H]4CCCN4)c3)ccc21 [Example 66, 1-Methyl-6-[5-((S)-1-pyrrolidin-2-ylmethoxy)-pyridin-3-yl]-3,4-dihydro-1H-quinolin-2-one hydrochloride] | 710 nM | – |
| CN1C(=O)CCc2cc(-c3cncc(C4CCN(C(=O)OC(C)(C)C)CC4)c3)ccc21 [Example 260, 5-(1-Methyl-2-oxo-1,2,3,4-tetrahydro-quinolin-6-yl)-3′,4′,5′,6′-tetrahydro-2′H-[3,4′]bipyridinyl-1′-carboxylic acid tert-butyl ester] | – | 1 nM |
| CCS(=O)(=O)NCc1cncc(-c2cc(F)c3c(ccc(=O)n3C)c2)c1 [Example 263, Ethanesulfonic acid [5-(8-fluoro-1-methyl-2-oxo-1,2-dihydro-quinolin-6-yl)-pyridin-3-ylmethyl]-amide] | 3100 nM | – |

Second part, the compound after the results:

| EC50 [1] | EC50 [2] | Compound |
| --- | --- | --- |
| 14 nM | 273 nM | CCS(=O)(=O)N1CC[C@@H](Oc2cncc(-c3cc4c(cc3F)N(C)C(=O)CC4)c2)C1 [Example 168, 6-[5-((R)-1-Ethanesulfonyl-pyrrolidin-3-yloxy)-pyridin-3-yl]-7-fluoro-1-methyl-3,4-dihydro-1H-quinolin-2-one] |
| 1 nM | 72 nM | CN1C(=O)CCc2cc(-c3cncc(O[C@H]4CC[C@H](NS(C)(=O)=O)CC4)c3)ccc21 [Example 245, N-{(trans)-4-[5-(1-Methyl-2-oxo-1,2,3,4-tetrahydro-quinolin-6-yl)-pyridin-3-yloxy]-cyclohexyl}-methanesulfonamide] |
| 13 nM | 4720 nM | Cc1noc(C)c1C(=O)NCc1cncc(-c2cc3c(cc2F)N(C)C(=O)CC3)c1C [Example 246, 3,5-Dimethyl-isoxazole-4-carboxylic acid [5-(7-fluoro-1-methyl-2-oxo-1,2,3,4-tetrahydro-quinolin-6-yl)-4-methyl-pyridin-3-ylmethyl]-amide] |
| 7 nM | 442 nM | CCS(=O)(=O)NC(C)c1cncc(-c2cc3c(cc2F)N(C)C(=O)CC3)c1 (single isomer, unassigned) [Example 190, Ethanesulfonic acid {(R or S)-1-[5-(7-fluoro-1-methyl-2-oxo-1,2,3,4-tetrahydro-quinolin-6-yl)-pyridin-3-yl]-ethyl}-amide] |
| 11 nM | 1500 nM | CCC(=O)N1CC[C@H](Oc2cncc(-c3ccc4c(c3)CCC(=O)N4C)c2)C1 [Example 90] |
| 128 nM | – | CCS(=O)(=O)NC(c1cncc(-c2ccc3c(c2)CCC(=O)N3C)c1)C(C)C (racemic) [Example 176, (rac)-Ethanesulfonic acid {2-methyl-1-[5-(1-methyl-2-oxo-1,2,3,4-tetrahydro-quinolin-6-yl)-pyridin-3-yl]-propyl}-amide] |
| – | 7 nM | CCS(=O)(=O)N(C)CCOc1cncc(-c2cc3c(cc2F)N(C)C(=O)CC3)c1 [Example 248, Ethanesulfonic acid {2-[5-(7-fluoro-1-methyl-2-oxo-1,2,3,4-tetrahydro-quinolin-6-yl)-pyridin-3-yloxy]-ethyl}-methyl-amide] |
| 685 nM | – | CN1C(=O)CCc2cc(-c3cncc(O[C@H]4CCNC4)c3)ccc21 [Example 60, 1-methyl-6-[5-((S)-pyrrolidin-3-yloxy)-pyridin-3-yl]-3,4-dihydro-1H-quinolin-2-one hydrochloride] |
